In patent publication US6989242B1, “Car receptors and related molecules and methods” (The General Hospital Coporation, priority 1992, dated 2006):

Assays:
TR/CAR chimera = test: Cotransfection of TR/CAR chimera with T3RE reporter, effect of added ligands; assay type: cell-based, human; details: JEG3 cells, charcoal-treated serum
From the text: To study the function of the putative ligand binding domain of the orphan, a chimeric receptor consisting of the C-terminal D, E and F domains of CAR (i.e., approximately amino acids 76-172, 173-319, and 320-348 of the CAR sequence, respectively) fused to the N-terminal A/B and C domains of TRβ was generated (termed TR/CAR), along with a control hybrid with the A/B and C domains of TR and the D, E and F domain of the glucocorticoid receptor (TR/GR). Vectors expressing these chimeras or the intact TR were cotransfected into JEG3 cells (ATCC Accession No: HTB 36) with reporter plasmids containing T3REs (i.e., of sequence […]; SEQ ID NO: 3) or GREs (from the MMTV promoter as described in Chandler et al., Cell 33:489, 1989) upstream of a reporter gene whose expression could be assayed. Transfections were carried out in the presence of serum treated with activated charcoal to remove T3 as well as other low molecular weight hydrophobic compounds that could act as CAR ligands.

CAR = target: T1, CAR (Homo sapiens, UniProt Q14994); test: Activation of the RARβ element by CAR in cotransfections, effect of protein kinase A/C pathway treatments; assay type: cell-based; details: cotransfection
T1 construct: expressed in transfected cells
T1 sequence (Q14994 1-348 isoform Q14994-2): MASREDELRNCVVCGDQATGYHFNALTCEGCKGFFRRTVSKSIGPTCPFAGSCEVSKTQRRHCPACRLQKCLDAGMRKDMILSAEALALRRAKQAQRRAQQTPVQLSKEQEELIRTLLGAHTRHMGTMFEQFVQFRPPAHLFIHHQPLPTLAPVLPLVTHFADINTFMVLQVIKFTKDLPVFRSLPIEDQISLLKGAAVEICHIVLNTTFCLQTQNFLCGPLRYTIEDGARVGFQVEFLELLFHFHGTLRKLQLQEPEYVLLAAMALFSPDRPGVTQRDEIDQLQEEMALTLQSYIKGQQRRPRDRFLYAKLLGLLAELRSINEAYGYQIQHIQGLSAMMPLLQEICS
From the text: Based on the constitutive activity of the TR/CAR chimera and the similarity of the DNA binding domain of CAR to other members of the superfamily, a number of response elements were screened for activation by the intact orphan in standard cotransfections. […] However, CAR did transactivate two wild type elements, the RAREs from the RARβ gene and the alcohol dehydrogenase (ADH) gene (i.e., […]; SEQ ID NO: 5). RAREs which were not transactivated by CAR included a potent up mutant version of the rat growth hormone gene T3RE/RARE (i.e., of sequence […]; SEQ ID NO:6; in tandem copies with the second copy inverted; described in Brent et al., Mol. Endocrinol. 3:1996, 1989) and the wild type version of the laminin T3RE/RARE (i.e., of sequence […]; SEQ ID NO: 8).
The activation of the RARβ element by CAR is not affected by several treatments that activate or inactivate signal transduction pathways mediated by protein kinases A or C. Thus, CAR activation was not altered by addition of dibutyryl cyclic AMP, by short or long term treatments with phorbol esters, or by cotransfections with vectors expressing the specific protein kinase A inhibitor peptide.

βRARE = test: Transactivation of βRARE-TK luciferase reporter in cotransfected HepG2 cells; assay type: cell-based, human; details: various cell types and conditions, no added ligand
From the text: To determine whether mCAR1 transactivated the βRARE in the absence of retinoids or any other exogenously added ligands, this construct was cotransfected with a luciferase reporter plasmid in which 3 copies of the βRARE were inserted upstream of the TK promoter. To carry out these experiments, HepG2 cells were maintained and transfected using calcium phosphate or DEAE dextran (Ausubel et al., Current Protocols in Molecular Biology, Greene Pub. Assoc.: New York, 1997). mCAR1 and mCAR2 expression vectors were generated by inserting appropriate fragments into the vector CDM8 (Seed, Nature 329:840-842, 1987), as previously described for hCAR. The luciferase reporter plasmid (Gulick et al., Proc. Natl. Acad. Sci. USA 91:11012-11016, 1994) contained three copies of the βRARE upstream of the TK promoter. The reporter plasmids with wild type and mutant versions of the RARβ2 promoter have been described (Moghal et al., Mol. Cell. Biol. 15:3945-3959, 1995). […]
For the TK reporter, pairs of 30 mm dishes were each transfected with 2 μg of reporter and pTKGH, and a total of 2 μg of mammalian expression vector. […] Transfections were carried out in media containing 10% charcoal stripped serum, and luciferase activity was determined using the Promega luciferase assay system as described by the manufacturer. […]

mCAR1 + RXR = mCAR1 + RXR (Mus musculus, UniProt O35627;P19793 O35627:1-358,P19793:1-462); test: EMSA; high affinity; indistinguishable from RAR/RXR; details: chain copies: heterodimer (stated)
From the text: (§1) FIG. 7 is a photograph showing DNA binding by mCAR1 and mCAR2. mCAR1, mCAR2, RXR, and RAR proteins were expressed by in vitro translation and used for electrophoretic mobility shift assays with a βRARE probe as indicated. "S" indicates competition with the βRARE oligonucleotide, and "NS" competition with a nonspecific oligonucleotide. Equivalent amounts of mCAR1, mCAR2, and RAR were used in the binding reactions, as determined by ^35S-methionine labeling.
(§2) For DNA binding studies, mCAR1, mCAR2, RAR, and RXR proteins were expressed using coupled in vitro transcription and translation (Promega, Inc.). Standard conditions were used for electrophoretic mobility shift assays with the DR-5 response element from the RARβ2 promoter (the βRARE) as the probe, as described for hCAR (MB67). In these experiments, mCAR1/RXR heterodimers bound with high affinity to the RARE from the RARβ2 isoform promoter (Sucov et al., Proc. Natl. Acad. Sci. USA 87:5392–5396, 1990; de The et al., Nature 343:177–180, 1990) (FIG. 7). […] This lack of mCAR2 binding was consistent with the absence of the C-terminal portion of the ligand/dimerization domain, which is essential for heterodimerization.

RAR + RXR = RAR + RXR (UniProt P10276;P19793 P10276:1-462,P19793:1-462); test: EMSA; details: chain copies: heterodimer (stated)
From the text: as §1, §2

[1] = target: T2, mCAR2 (splice variant lacking exon 8, 107 bp out-of-frame deletion; 6 new residues replace last 78 of mCAR1) (Mus musculus, UniProt O35627-2 O35627-2:1-286); test: EMSA; alone; details: tags: GenBank variant of mCAR1
T2 sequence: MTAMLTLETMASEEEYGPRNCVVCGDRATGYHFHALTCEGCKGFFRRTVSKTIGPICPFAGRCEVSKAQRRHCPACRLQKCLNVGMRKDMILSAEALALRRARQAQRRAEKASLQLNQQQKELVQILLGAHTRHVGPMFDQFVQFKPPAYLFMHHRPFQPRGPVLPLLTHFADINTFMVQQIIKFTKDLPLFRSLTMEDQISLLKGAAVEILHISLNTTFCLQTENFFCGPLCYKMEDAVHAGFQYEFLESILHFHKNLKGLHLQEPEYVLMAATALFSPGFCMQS
From the text: as §1, §2

mCAR2 + RXR = mCAR2 + RXR (Mus musculus, UniProt O35627-2;P19793 O35627-2:1-286,P19793:1-462); test: EMSA; with RXR
From the text: as §1, §2

Sequence of mCAR1 + RXR (P19793 whole entry, one chain of several): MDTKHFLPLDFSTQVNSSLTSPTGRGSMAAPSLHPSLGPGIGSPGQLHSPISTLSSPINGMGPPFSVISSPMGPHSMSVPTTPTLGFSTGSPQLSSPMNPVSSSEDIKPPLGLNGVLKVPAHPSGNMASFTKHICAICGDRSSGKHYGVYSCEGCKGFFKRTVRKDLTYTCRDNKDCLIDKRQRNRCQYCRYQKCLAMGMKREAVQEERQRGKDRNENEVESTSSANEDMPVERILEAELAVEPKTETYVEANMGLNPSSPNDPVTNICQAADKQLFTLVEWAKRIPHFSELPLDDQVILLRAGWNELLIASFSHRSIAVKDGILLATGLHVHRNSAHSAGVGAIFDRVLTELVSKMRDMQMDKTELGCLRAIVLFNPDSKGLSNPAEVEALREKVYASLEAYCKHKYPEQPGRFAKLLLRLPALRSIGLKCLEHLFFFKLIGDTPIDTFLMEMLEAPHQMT
Sequence of mCAR2 + RXR (P19793 whole entry, one chain of several): as above
Sequence of RAR + RXR (P10276 whole entry, chain 1 of 2): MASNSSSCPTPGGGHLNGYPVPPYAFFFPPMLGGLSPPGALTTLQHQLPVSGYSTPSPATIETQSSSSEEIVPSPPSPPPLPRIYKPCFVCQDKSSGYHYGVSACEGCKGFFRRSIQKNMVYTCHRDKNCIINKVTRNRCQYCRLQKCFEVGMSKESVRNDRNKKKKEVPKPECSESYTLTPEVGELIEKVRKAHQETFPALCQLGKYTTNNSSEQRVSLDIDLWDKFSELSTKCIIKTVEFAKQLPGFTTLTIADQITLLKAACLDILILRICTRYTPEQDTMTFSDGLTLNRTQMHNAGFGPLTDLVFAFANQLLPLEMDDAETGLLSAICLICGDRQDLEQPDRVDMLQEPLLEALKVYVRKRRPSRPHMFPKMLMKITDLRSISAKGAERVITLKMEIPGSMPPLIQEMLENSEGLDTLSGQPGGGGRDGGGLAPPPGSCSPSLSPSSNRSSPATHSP
Sequence of RAR + RXR (P19793 whole entry, chain 2 of 2): as the sequence (P19793 whole entry, one chain of several) above

C[C@H](CCCC(C)(C)O)[C@H]1CC[C@H]2[C@@H]3CC=C4C[C@@H](O)CC[C@]4(C)[C@H]3CC[C@]12C [25-hydroxy cholesterol]
effect of added ligand on ligand-independent activation of T3RE reporter by TR/CAR chimera (TR/CAR chimera): not altered

N[C@@H](Cc1cc(I)c(Oc2ccc(O)c(I)c2)c(I)c1)C(=O)O [T3]
effect of added ligand on ligand-independent activation of T3RE reporter by TR/CAR chimera (TR/CAR chimera): not altered

C[C@]12CC[C@@H]3c4ccc(O)cc4CC[C@H]3[C@@H]1CC[C@@H]2O [astraddle]
effect of added ligand on ligand-independent activation of T3RE reporter by TR/CAR chimera (TR/CAR chimera): not altered

CCCC(=O)Nc1ncnc2c1ncn2[C@@H]1O[C@@H]2COP(=O)(O)O[C@H]2[C@H]1OC(=O)CCC [dibutyryl cyclic AMP]
effect on CAR activation of the RARβ element (CAR): not altered

CC1=C(/C=C/C(C)=C/C=C/C(C)=C/C(=O)O)C(C)(C)CCC1 [resinoid acid]
effect of added ligand on ligand-independent activation of T3RE reporter by TR/CAR chimera (TR/CAR chimera): not altered

C[C@]12CC[C@H]3[C@@H](CCC4=CC(=O)CC[C@@]43C)[C@@H]1CC[C@@H]2O [testosterone]
effect of added ligand on ligand-independent activation of T3RE reporter by TR/CAR chimera (TR/CAR chimera): not altered

B1: hCAR: human CAR receptor, 348 amino acids, SEQ ID NO:10 (protein, listed as Homo sapiens)
chain: MASREDELRNCVVCGDQATGYHFNALTCEGCKGFFRRTVSKSIGPTCPFAGSCEVSKTQRRHCPACRLQKCLDAGMRKDMILSAEALALRRAKQAQRRAQQTPVQLSKEQEELIRTLLGAHTRHMGTMFEQFVQFRPPAHLFIHHQPLPTLAPVLPLVTHFADINTFMVLQVIKFTKDLPVFRSLPIEDQISLLKGAAVEICHIVLNTTFCLQTQNFLCGPLRYTIEDGARVGFQVEFLELLFHFHGTLRKLQLQEPEYVLLAAMALFSPDRPGVTQRDEIDQLQEEMALTLQSYIKGQQRRPRDRFLYAKLLGLLAELRSINEAYGYQIQHIQGLSAMMPLLQEICS
transactivation of βRARE reporter (βRARE): 20-100 fold

B2: betaRARE (RARbeta2 promoter DR-5) (dsDNA)
DNA 1: GGGTAGGGTTCACCGAAAGTTCACTCG
DNA 2: CGAGTGAACTTTCGGTGAACCCTACCC
binding result (mCAR1 + RXR): binds
binding result (RAR + RXR): binds
binding result [1]: no binding
binding result (mCAR2 + RXR): no binding
